In BindingDB's records for doi:10.1111/cbdd.12842 (Jagiellonian University Medical College, 2017):
Counter-ions that a name gives are not always drawn.

Target: T1, 5-hydroxytryptamine receptor 1A (Homo sapiens, UniProt P08908)
T1 sequence (P08908 whole entry): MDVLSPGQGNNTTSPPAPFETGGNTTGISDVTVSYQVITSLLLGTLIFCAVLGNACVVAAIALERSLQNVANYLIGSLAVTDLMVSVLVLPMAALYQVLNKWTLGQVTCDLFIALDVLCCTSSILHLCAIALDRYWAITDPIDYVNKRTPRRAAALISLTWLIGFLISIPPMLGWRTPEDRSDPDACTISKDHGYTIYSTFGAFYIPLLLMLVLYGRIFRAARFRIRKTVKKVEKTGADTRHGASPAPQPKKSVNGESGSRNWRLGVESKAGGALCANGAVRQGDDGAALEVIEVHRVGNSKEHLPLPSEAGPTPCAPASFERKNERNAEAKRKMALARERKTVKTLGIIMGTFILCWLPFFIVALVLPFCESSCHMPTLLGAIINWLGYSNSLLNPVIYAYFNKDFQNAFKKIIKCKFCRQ
Assay: Radioligand Binding Assay ([3H]-8-OH-DPAT)
Conditions: pH 7.4
Experimental: Binding experiments were conducted in 96-well microplates in a total volume of 250 μL of buffer (50 mM Tris-HCl pH 7.4, 10 mM MgCl2, 0.5 mM EDTA). Reaction mix included 50 μL solution of test compound, 50 μL of [3H]-8-OH-DPAT, and 150 μL of diluted membranes or the tissue suspension. Incubation condition: 60 min at 27 °C.

| Compound | Ki [nM] |
| --- | --- |
| CCC(CO)NCCOc1ccc2oc3ccccc3c(=O)c2c1 (stereo not drawn) [R,S-2-{2-[(1-hydroxybutan-2-yl]amino)ethoxy}-9H-xanthen-9-one (9)] | 659 |
| CCC(O)CNCCOc1ccc2oc3ccccc3c(=O)c2c1 (stereo not drawn) [R,S-2-{2-[(2-hydroxybutyl)amino]ethoxy}-9H-xanthen-9-one hydrochloride (8a)] | 320 |
| CCC(CO)NCCCOc1ccc2oc3ccccc3c(=O)c2c1 (stereo not drawn) [R,S-2-{3-[(1-hydroxybutan-2-yl)amino]propoxy}-9H-xanthen-9-one (12)] | > 5000 |
